Data from US20160266093A1, “CELLS HAVING DISRUPTED EXPRESSION OF PROTEINS INVOLVED IN ADME AND TOXICOLOGY PROCESSES” (SIGMA-ALDRICH CO. LLC, priority 2010, published 2016).

Experiments:
[1] = test system: MDR1/BCRP double knockout C2BBe1 cells
Protocol: (§1) Both wild type cells (parental C2BBe1 cells) and BCRP knockout cells were seeded onto 24-well transwell plates and cultured for 21 days, following a standard protocol for intestinal efflux transporter assays previously developed using Caco-2 cells. The permeability of test compounds in both the apical to basal (A to B) and basal to apical (B to A) directions was measured following a two hour incubation and the efflux values calculated. […] Digoxin is a known MDR1 substrate, while CDCFDA is selective for the MRP2 transporter. Two additional compounds were used as controls, atenolol and metoprolol, which are known to not be substrates for either of these transporters.
(§2) The BCRP and MDR1 transporter genes were individually knocked out and an MDR1/BCRP double knockout was also generated in C2BBe1 cells using zinc finger nuclease technology. Cells were analyzed and expanded as described above and then tested for functional activity in the standard transwell assay. Two substrates were utilized—estrone 3-sulfate as a selective substrate for BCRP and digoxin as a selective substrate for MDR1. Metoprolol was used as a control.

[2] = test system: parental C2BBe1 cells (wild type); conditions: Caco-2
Protocol: as §1, §2

[3] = test system: MDR1 knockout C2BBe1 cells
Protocol: as §1, §2

[4] = test system: BCRP knockout C2BBe1 cells
Protocol: The wild-type BCRP gene was knocked out in C2BBe1 cells using zinc finger nuclease technology to generate a stable cell line. Cells were sorted and single cell cloned. Cells were analyzed for the desired mutations and positive clones were chosen for further expansion and analysis. Quantitative PCR was used to evaluate mRNA expression of the cell and compared to wild type cell. Whole cell lysates prepared from these clones were subjected to immunoblotting for analysis of BCRP protein expression level. […] A single BCRP knockout cell clone was selected for functional characterization of efflux activity using several known transporter-selective substrates (e.g. estrone 3-sulfate, digoxin and CDCFDA).
as §1, §2

Row | efflux ratio [1] | efflux ratio [2] | efflux ratio [3] | efflux ratio [4] | efflux ratio in the knockout cells compared to the parental cells [4] | Structure (SMILES)
1 | inhibited | high | inhibited | high | unaffected | C[C@H]1O[C@@H](O[C@H]2[C@@H](O)C[C@H](O[C@H]3[C@@H](O)C[C@H](O[C@H]4CC[C@@]5(C)[C@H](CC[C@@H]6[C@@H]5C[C@@H](O)[C@]5(C)[C@@H](C7=CC(=O)OC7)CC[C@]65O)C4)O[C@@H]3C)O[C@@H]2C)C[C@H](O)[C@@H]1O [digoxin]
2 | inhibited | high | high | inhibited | greatly reduced | C[C@]12CC[C@@H]3c4ccc(OS(=O)(=O)O)cc4CC[C@H]3[C@@H]1CCC2=O [estrone 3-sulfate]
